Here are results for 1 molecule from patent US20120083471A1, “Novel Compounds, Pharmaceutical Compositions Containing Same, Methods of Use for Same, and Methods for Preparing Same” (priority 2008, published 2012).

In data set [1] the target is T1, mtGPAT1 (Mus musculus, UniProt Q61586).
T1 construct: from tissue; host or cells: mitochondrial preparation
T1 sequence (Q61586 1-827): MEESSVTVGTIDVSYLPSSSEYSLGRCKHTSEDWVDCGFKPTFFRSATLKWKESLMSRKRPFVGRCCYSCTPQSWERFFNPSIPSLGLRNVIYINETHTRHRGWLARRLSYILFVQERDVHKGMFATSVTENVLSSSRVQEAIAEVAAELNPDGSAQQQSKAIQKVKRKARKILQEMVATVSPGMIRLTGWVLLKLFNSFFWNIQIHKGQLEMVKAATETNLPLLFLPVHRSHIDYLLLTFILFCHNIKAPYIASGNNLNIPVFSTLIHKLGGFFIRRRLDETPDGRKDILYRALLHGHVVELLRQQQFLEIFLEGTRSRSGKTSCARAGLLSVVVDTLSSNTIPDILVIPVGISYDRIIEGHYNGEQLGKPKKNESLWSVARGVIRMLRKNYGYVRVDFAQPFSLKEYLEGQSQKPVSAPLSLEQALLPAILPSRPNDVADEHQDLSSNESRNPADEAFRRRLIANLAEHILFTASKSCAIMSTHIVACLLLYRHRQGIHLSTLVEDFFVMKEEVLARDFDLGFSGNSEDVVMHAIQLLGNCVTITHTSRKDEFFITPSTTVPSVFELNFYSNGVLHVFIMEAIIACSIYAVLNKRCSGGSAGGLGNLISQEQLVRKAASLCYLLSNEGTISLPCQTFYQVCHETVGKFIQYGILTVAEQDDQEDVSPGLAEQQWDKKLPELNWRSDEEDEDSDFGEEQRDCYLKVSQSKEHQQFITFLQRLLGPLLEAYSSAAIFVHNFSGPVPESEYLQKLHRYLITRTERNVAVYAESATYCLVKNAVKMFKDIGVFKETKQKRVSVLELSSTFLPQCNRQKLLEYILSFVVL
As to the kind of experiment: In vitro mtGPAT inhibition: acylation of 14C-glycerol 3-phosphate with palmitoyl-CoA, scintillation counting. It is filed as biochemical. To be noted: Table 2, sulfonamides 15a-i and 17a-f; triplicate; read-out: IC50 (μM) ± SD, In Vitro Anti-mtGPAT1 Activity. The protocol: The compounds produced as described above were evaluated for their ability to inhibit the acylation of glycerol-3-phosphate in vitro. The acylation reaction between ^14C-labelled glycerol-3-phosphate and palmitoyl-CoA, initiated by adding mtGPAT, was measured in the presence of varying concentrations of the inhibitor by scintillation counting as described in more detail below.
A mitochondrial preparation of glycerol 3-phosphate acyltransferase was added to the incubation mixture containing ^14C-labeled glycerol 3-phosphate, palmitoyl-CoA, and varying inhibitor concentrations to initiate the reaction. After ten min, the reaction was terminated by adding chloroform, methanol, and 1% perchloric acid. Five minutes later, more chloroform and perchloric acid were added, and the upper aqueous layer was removed. After washing three times with 1% perchloric acid, the organic layer was evaporated under nitrogen, and the amount of ^14C present was counted to determine the extent of reaction inhibition. Data points were recorded in triplicate, and IC50 values were calculated based on the amount of test inhibitor necessary to produce 50% of mtGPAT activity observed in the absence of inhibitor but in the presence of DMSO vehicle control.

Data set [2] relates to lean mice. As to the kind of experiment: Conditioned taste aversion, two-bottle choice. It is filed as in vivo, mouse. To be noted: 5 mg/kg or 20 mg/kg ip, listed as FSG67. How it is done: Conditioned taste aversion. Ten days before testing, eighteen male C57/BL6 mice were placed on a schedule of 2 h daytime access to water. On the test day, mice were divided into three groups and were given access to 0.15% sodium saccharin rather than water for 30 min. Immediately after saccharin access, mice were injected ip with RPMI vehicle or FSG67 (5 and 20 mg/kg body wt) and were allowed water access for the remaining 90 min. Twenty-four hours later, mice were given 2h access to a two-bottle choice test of 0.15% saccharin vs. water. Intakes of both solutions were recorded, and data were expressed as saccharin preference (100× saccharin intake/saccharin intake+water intake).
GPAT inhibition with FSG67 decreased body weight in DIO mice consuming a high fat diet. FSG67 treated DIO mice lost 4.3±0.5% (1.7±0.2 g) of body mass versus a 5.3±0.4% (2.1±0.2 g) loss for fasted mice (FIG. 11c). Compared to the vehicle control mice which lost 2.5±0.6% (1.0±0.2 g) the weight loss was significant in both the FSG67 treated (p=0.026, 2-tailed t-test) and fasted mice (p=0.002, 2-tailed t-test). […] Thus, the reduction in food intake from FSG67 was not due to sickness behavior (FIG. 11e).

For data set [3], the target named is T2, mouse mitochondrial GPAT (Mus musculus, UniProt Q61586).
T2 sequence (Q61586 1-827): T1 sequence (Q61586 1-827)
The settings on record: reference 12; read-out: reported IC50 for mouse mitochondrial GPAT activity; cited from earlier work.

pIC50: −log10 of the molar value. “Also recorded” adds a separate entry of the source.

Broadly, the IC50 is the point on the concentration scale where inhibition reaches its midpoint. By pIC50 is commonly meant the negative decadic logarithm of the IC50, by convention in mol/L. On to `CCCCCCCCCS(=O)(=O)Nc1ccccc1C(=O)O` [Compound 15g, 2-(Nonylsulfonamido)benzoic acid], for which the IC50 in data set [1] was 8.1 µM. For the same molecule, the “conditioned taste aversion (saccharin intake)” value in data set [2] was “failed to produce a significant reduction in saccharin intake; also recorded: did not induce conditioned tasted aversion”. For the same molecule, in data set [3], the pIC50 is 4.61.
